Data published in US11964962B2, “Substituted pyridazinone compound and use thereof” (SHANDONG FIRST MEDICAL UNIVERSITY & SHANDONG ACADEMY OF …, priority 2020, dated 2024).

What was measured:
[1] = target: T1, THRα (Homo sapiens, UniProt P10827); assay: THRα agonist activity, fluorescence ratio 665 nm/615 nm with EE-RxRα and biotin-GRIP; type: biochemical; settings: incubated overnight at 4° C.
T1 construct: GST
T1 sequence (P10827 1-410 isoform P10827-2): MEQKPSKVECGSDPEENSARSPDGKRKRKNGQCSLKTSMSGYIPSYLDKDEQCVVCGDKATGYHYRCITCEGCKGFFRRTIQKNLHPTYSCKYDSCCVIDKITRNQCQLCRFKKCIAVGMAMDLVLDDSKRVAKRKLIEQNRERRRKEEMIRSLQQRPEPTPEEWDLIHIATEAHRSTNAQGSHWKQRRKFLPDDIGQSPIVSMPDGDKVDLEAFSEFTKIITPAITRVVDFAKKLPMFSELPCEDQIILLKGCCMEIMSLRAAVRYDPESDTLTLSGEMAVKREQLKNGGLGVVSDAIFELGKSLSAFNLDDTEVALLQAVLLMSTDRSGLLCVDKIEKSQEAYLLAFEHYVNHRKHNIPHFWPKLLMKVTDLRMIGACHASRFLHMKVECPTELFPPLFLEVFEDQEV
T1 sequence (P19793 225-462 partner limits assumed): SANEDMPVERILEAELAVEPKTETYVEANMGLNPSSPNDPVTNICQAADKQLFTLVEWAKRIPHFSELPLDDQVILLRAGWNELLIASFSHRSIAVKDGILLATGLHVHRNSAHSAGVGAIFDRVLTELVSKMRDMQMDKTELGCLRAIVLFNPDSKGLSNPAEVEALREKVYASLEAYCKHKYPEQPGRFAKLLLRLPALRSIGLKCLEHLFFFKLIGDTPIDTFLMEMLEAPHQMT
T1 sequence (Q15596 679-703 partner limits assumed): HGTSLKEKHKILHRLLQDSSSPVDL
Procedure: (§1) Test compound was dissolved and serially diluted in dimethyl sulfoxide (DMSO) with a final compound concentration of 60 mM. […] Buffer 1 was employed again to prepare EE-RxRα at the same concentrations as those of THRα and THRβ, respectively. Buffer 1+5% DMSO was employed to prepare biotin-GRIP (THRα: […], THRβ: 100 nM). Buffer 2 (50 mM Tris, pH 7.4, 100 mM NaCl, and 0.2 mg/mL BSA) was employed to prepare a mixed solution of 2×Eu-anti-GST and 2×streptavidin-d2. 5 μL of the THRα (THRβ) solution+5 μL of EE-RxRα+2.5 μL of the DMSO solution of test compound+2.5 μL of biotin-GRIP+5 μL of the mixed solution of 2×Eu-anti-GST and 2×streptavidin-d2 was employed as the reaction system, and incubated overnight at 4° C.

[2] = target: T2, THRβ (Homo sapiens, UniProt P10828); assay: THRβ agonist activity, fluorescence ratio 665 nm/615 nm with EE-RxRα and biotin-GRIP; type: biochemical; settings: incubated overnight at 4° C.
T2 construct: GST
T2 sequence (P10828 1-461): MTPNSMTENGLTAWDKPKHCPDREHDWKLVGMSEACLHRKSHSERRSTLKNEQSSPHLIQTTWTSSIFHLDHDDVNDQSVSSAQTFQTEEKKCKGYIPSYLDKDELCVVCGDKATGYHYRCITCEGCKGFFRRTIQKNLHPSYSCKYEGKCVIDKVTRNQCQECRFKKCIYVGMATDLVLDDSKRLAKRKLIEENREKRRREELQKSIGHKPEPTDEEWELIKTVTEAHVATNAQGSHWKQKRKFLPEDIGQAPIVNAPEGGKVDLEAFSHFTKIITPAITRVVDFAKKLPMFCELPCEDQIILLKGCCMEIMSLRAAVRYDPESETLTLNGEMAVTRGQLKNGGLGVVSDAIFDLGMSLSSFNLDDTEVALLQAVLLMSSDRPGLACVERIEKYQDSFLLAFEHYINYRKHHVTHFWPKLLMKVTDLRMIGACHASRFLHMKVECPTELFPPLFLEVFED
T2 sequence (P19793 225-462 partner limits assumed): T1 sequence (P19793 225-462 partner limits assumed)
T2 sequence (Q15596 679-703 partner limits assumed): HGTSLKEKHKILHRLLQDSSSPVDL
Procedure: as §1

[3] = system: L929 mouse fibroblasts; assay: Cytotoxicity in normal cell line L929 (CCK-8 proliferation assay); type: cell-based; settings: 48 h treatment, CCK-8, absorbance 450 nm, read-out: IC50 for proliferation of L929 cell lines
Procedure: Concentration of L929 mouse fibroblasts was adjusted to 4×10^5 cells/mL. The cells were seeded in a 96 well plate with […] per well. Wells not supplied with the cells (blank group) were provided. The cells were cultivated on the plate and were allowed to adhere overnight. Then, cell culture supernatants were collected, and 200 μL of test compound at various concentrations were added to the corresponding cell culture supernatants. Control and compound-treated cell culture supernatants were included in each experiment with triplicate wells for each experimental group, and were cultivated for a further 48 h. Then, the resulting cell culture supernatants were again collected, and fresh medium supplemented with 10% CCK-8 solution was added thereto. Incubation for an additional 3 h was carried out. Thereafter, the absorbance of the medium was measured at 450 nm wavelength, and the inhibitory rate of cell proliferation by test compound was calculated according to the equation below: R (%)=1−(Aexperiment−Ablank)/(Acontrol−Ablank)

Compound | EC50 [1] | EC50 [2] | IC50 [3]
CC(C)c1cc(Oc2cc(Cl)c(-n3cc(C#N)c(=O)[nH]c3=O)cc2Cl)n[nH]c1=O [Compound 40] | 24.1 µM | > 63 µM | > 50 µM
CC(C)c1cc(Oc2ccc(-n3nc(C#N)c(=O)[nH]c3=O)c(Cl)c2)n[nH]c1=O [Compound 30] | > 60 µM | 17.3 µM | > 50 µM
N#Cc1cn(-c2cc(Cl)c(Oc3cc(C4CCC4)c(=O)[nH]n3)c(Cl)c2)c(=O)[nH]c1=O [Compound 42, 1-(3,5-dichloro-4-((5-cyclobutyl-6-oxo-1,6-dihydropyridazin-3-yl)oxy)phenyl)-2,4-dioxo-1,2,3,4-tetrahydropyrimidine-5-carbonitrile] | 1.81 µM | 0.0257 µM | > 50 µM
CC(C)Cc1cc(Oc2c(Cl)cc(-n3nc(C#N)c(=O)[nH]c3=O)cc2Cl)n[nH]c1=O [Compound 14] | 3.39 µM | 0.0254 µM | > 50 µM
N#Cc1nn(-c2cc(Cl)c(Oc3cc(CC4CCCC4)c(=O)[nH]n3)cc2Cl)c(=O)[nH]c1=O [Compound 11] | 2.14 µM | 0.372 µM | > 50 µM
CC(C)(C)Cc1cc(Oc2ccc(-n3nc(C#N)c(=O)[nH]c3=O)cc2Cl)n[nH]c1=O [Compound 19] | 11.8 µM | 0.0668 µM | > 50 µM
CC(C)(C)Cc1cc(Oc2c(Cl)cc(-n3cc(C#N)c(=O)[nH]c3=O)cc2Cl)n[nH]c1=O [Compound 43] | 6.62 µM | 0.0403 µM | > 50 µM
Cc1c(Oc2ccc(-n3nc(C#N)c(=O)[nH]c3=O)cc2F)n[nH]c(=O)c1C [Compound 23] | 4.59 µM | 0.776 µM | > 50 µM
N#Cc1nn(-c2ccc(Oc3cc(CC4CCCC4)c(=O)[nH]n3)cc2Cl)c(=O)[nH]c1=O [Compound 10] |  | 1.52 µM | > 50 µM
CC(C)(C)c1cc(Oc2c(Cl)cc(-n3nc(C#N)c(=O)[nH]c3=O)cc2Cl)n[nH]c1=O [Compound 1, 2-(4-((5-(tert-butyl)-6-oxo-1,6-dihydropyridazin-3-yl)oxy)-3,5-dichlorophenyl)-3,5-dioxo-2,3,4,5-tetrahydro-1,2,4-triazine-6-carbonitrile] | 0.126 µM | 0.101 µM | > 50 µM
CC(C)c1cc(=O)[nH]nc1Oc1ccc(-n2nc(C#N)c(=O)[nH]c2=O)c(Cl)c1 [Compound 36] | 13.8 µM | 4.16 µM | > 50 µM
COc1cc(-n2nc(C#N)c(=O)[nH]c2=O)ccc1Oc1n[nH]c(=O)c(C)c1C [Compound 46] | 50.8 µM | 1.4 µM | > 50 µM
CC(C)(C)c1cc(Oc2ccc(-n3nc(C#N)c(=O)[nH]c3=O)cc2F)n[nH]c1=O [Compound 2, 2-(4-((5-(tert-butyl)-6-oxo-1,6-dihydropyridazin-3-yl)oxy)-3-fluorophenyl)-3,5-dioxo-2,3,4,5-tetrahydro-1,2,4-triazine-6-carbonitrile] | 5.38 µM | 0.021 µM | > 50 µM
N#Cc1nn(-c2ccc(Oc3cc(CC4CCCC4)c(=O)[nH]n3)cc2)c(=O)[nH]c1=O [Compound 13] | > 60 µM | 1.9 µM | > 50 µM
Cc1c(Oc2c(Cl)cc(-n3nc(C#N)c(=O)[nH]c3=O)cc2Cl)n[nH]c(=O)c1C [Compound 22] | 0.631 µM | 0.184 µM | > 50 µM
N#Cc1nn(-c2ccc(Oc3cc(C4CCCC4)c(=O)[nH]n3)cc2Cl)c(=O)[nH]c1=O [Compound 33] |  | 7.55 µM | > 50 µM
CC(C)c1cc(Oc2c(Cl)cc(-c3nn[nH]n3)cc2Cl)n[nH]c1=O [Compound 49, 6-(2,6-dichloro-4-(2H-tetrazol-5-yl)phenoxy)-4-isopropylpyridazin-3(2H)-one] | 3.32 µM | 0.254 µM | > 50 µM
N#Cc1nn(-c2ccc(Oc3cc(CC4CCCC4)c(=O)[nH]n3)c(Br)c2)c(=O)[nH]c1=O [Compound 9] | 4.76 µM | 0.642 µM | > 50 µM
CC(C)(C)Cc1cc(Oc2cc(Cl)c(-n3nc(C#N)c(=O)[nH]c3=O)cc2Cl)n[nH]c1=O [Compound 20] |  | 4.58 µM | > 50 µM
COc1cc(-n2nc(C#N)c(=O)[nH]c2=O)ccc1Oc1cc(C(C)(C)C)c(=O)[nH]n1 [Compound 5] | 0.883 µM | 4.9 µM | > 50 µM
CC(C)(C)c1cc(Oc2ccc(-n3nc(C#N)c(=O)[nH]c3=O)c(Cl)c2)n[nH]c1=O [Compound 4] | > 60 µM | 1.57 µM | > 50 µM
COc1cc(-n2nc(C#N)c(=O)[nH]c2=O)ccc1Oc1cc(CC(C)(C)C)c(=O)[nH]n1 [Compound 21] | 19.9 µM | 1.52 µM | > 50 µM
CC(C)(C)c1cc(Oc2ccc(-n3nc(C#N)c(=O)[nH]c3=O)cc2Cl)n[nH]c1=O [Compound 3] | 1.4 µM | 0.81 µM | > 50 µM
N#Cc1nn(-c2ccc(Oc3cc(CC4CCCC4)c(=O)[nH]n3)c(Cl)c2)c(=O)[nH]c1=O [Compound 8] | 6.15 µM | 0.0326 µM | > 50 µM
CC(C)c1cc(Oc2ccc(-n3nc(C#N)c(=O)[nH]c3=O)cc2Br)n[nH]c1=O [Compound 27] | 2.55 µM | 0.0311 µM | > 50 µM
N#Cc1nn(-c2cc(Cl)c(Oc3n[nH]c(=O)cc3C3CCCC3)c(Cl)c2)c(=O)[nH]c1=O [Compound 38] | 4.66 µM | 0.783 µM | > 50 µM
CC(C)Cc1cc(Oc2ccc(-n3nc(C#N)c(=O)[nH]c3=O)cc2Br)n[nH]c1=O [Compound 15] |  | 1.52 µM | > 50 µM
CC(C)c1cc(Oc2cc(Cl)c(-n3nc(C#N)c(=O)[nH]c3=O)cc2Cl)n[nH]c1=O [Compound 29] |  | 0.117 µM | > 50 µM
CC(C)(C)Cc1cc(Oc2ccc(-n3cc(C#N)c(=O)[nH]c3=O)c(Cl)c2)n[nH]c1=O [Compound 45] |  | > 60 µM | > 50 µM
